In patent US12220440B2, “Drug composition, method for treating infection, disinfecting composition, and drug adjuvant” (priority 2022, dated 2025):
Read-outs that look alike come from different tables or passages of the source. Peptide text beside a SMILES is read from it.

How the values were obtained:
Assay type in all cases: cell-based
[1] = test system: A. baumannii (colistin-resistant); experiment: MIC, colistin-resistant A. baumannii isolates, with and without otilonium bromide; settings: for MIC: Acinetobacter baumannii
[2] = test system: P. aeruginosa (colistin-susceptible); experiment: MIC, colistin-susceptible P. aeruginosa isolates, with and without otilonium bromide; settings: Pseudomonas aeruginosa
E. coli J53 = experiment: Ca2+ / Mg2+ MIC-dependency in cation-supplemented MHB; settings: 37° C., 16 hours
Experimental: For FIGS. 5c-5d, colistin-susceptible E. coli J53 is treated with colistin and colistin+Ob as indicated in MHB supplemented with different concentrations of Mg^2+ and Ca^2+ ions. The incubation is conducted at 37° C. for 16 hours.
Accordingly, it is believed that the addition of a chelant; or a chelant for divalent ions; or a divalent cation chelant, may further improve the activity of the drug formulation, method of use/treatment, disinfection composition, etc. of the present invention.

[3] = test system: colistin-susceptible E. coli; experiment: Time-kill curves
Experimental: (§1) However, the effective bactericidal concentration of colistin could be reduced to 8 μg/ml in the presence of 20 μg/ml of otilonium bromide. For colistin-susceptible E. coli, 8 μg/ml of colistin is required to eradicate the strains. However, in the presence of 20 μg/ml of otilonium bromide 1 μg/ml colistin is sufficient to achieve complete eradication of the organism. […] Thus, without intending to be limited by theory, it is believed that this synergistic mechanism is not limited to the inhibition of the colistin resistance mechanism.

[4] = test system: colistin-resistant E. coli; experiment: Time-kill curves
Experimental: as §1

S. Typhimurium PY01 = experiment: MIC, colistin-susceptible S. Typhimurium, with and without otilonium bromide; settings: Salmonella enterica
[5] = test system: E. coli (colistin-resistant); experiment: MIC, colistin-resistant E. coli clinical isolates, with and without otilonium bromide; settings: Escherichia coli
[6] = in the presence of 20 μg/ml of otilonium bromide

CCC(C)CCCC(=O)N[C@@H](CCN)C(=O)N[C@H](C(=O)N[C@@H](CCN)C(=O)N[C@H]1CCNC(=O)[C@H]([C@@H](C)O)NC(=O)[C@H](CCN)NC(=O)[C@H](CCN)NC(=O)[C@H](CC(C)C)NC(=O)[C@@H](CC(C)C)NC(=O)[C@H](CCN)NC1=O)[C@@H](C)O (stereo partly drawn) [Colistin] (HELM PEPTIDE1{[CCC(C)CCCC(=O)[*:2]].[Dab].T.[Dab].[Dab].[Dab].[dL].L.[Dab].[Dab].T}$PEPTIDE1,PEPTIDE1,5:R3-11:R2$$$V2.0)
≤ 0.25 µg/mL: MIC ([5]; E. coli 5, colistin-resistant, in the presence of 20 ug/ml Ob, read-out: Colistin MIC, Colistin + 20 ug/ml Ob)
≥ 32 µg/mL: colistin concentration inhibiting growth (time-kill) ([4]; colistin alone)
1 µg/mL: MIC ([2]; P. aeruginosa PAER 2011-3010, colistin-susceptible, in the presence of 10 ug/ml Ob, read-out: Colistin MIC, Colistin + 10 ug/ml Ob) | colistin sufficient for complete eradication (time-kill) [3, 6]
0.0625 µg/mL: MIC ([1]; read-out: Colistin MIC, Colistin + 10 ug/ml Ob, A. baumannii ABJZ-45, colistin-resistant, in the presence of 10 ug/ml Ob) | MIC ([2]; P. aeruginosa PAERC 10.296, colistin-susceptible, in the presence of 10 ug/ml Ob, read-out: Colistin MIC, Colistin + 10 ug/ml Ob) | MIC ([2]; P. aeruginosa PAERC 10.296, colistin-susceptible, in the presence of 20 ug/ml Ob, read-out: Colistin MIC, Colistin + 20 ug/ml Ob)
0.03 µg/mL: MIC (S. Typhimurium PY01; in the presence of 20 ug/ml Ob, read-out: Colistin MIC, Colistin + 20 ug/ml Ob)
8 µg/mL: colistin required to eradicate the strains (time-kill) ([3]; colistin alone) | effective bactericidal concentration of colistin (time-kill) [4, 6] | MIC ([5]; E. coli 5, colistin-resistant, colistin alone, read-out: Colistin MIC, Colistin) | MIC ([5]; E. coli 12.12.0487, colistin-resistant, colistin alone, read-out: Colistin MIC, Colistin)
0.125 µg/mL: MIC ([1]; ATCC17978, read-out: Colistin MIC, Colistin + 10 ug/ml Ob, A. baumannii ATCC17978, colistin-resistant, in the presence of 10 ug/ml Ob) | MIC ([1]; read-out: Colistin MIC, Colistin + 10 ug/ml Ob, A. baumannii ABJZ-72, colistin-resistant, in the presence of 10 ug/ml Ob) | MIC ([2]; P. aeruginosa PAERC 12.1478, colistin-susceptible, in the presence of 20 ug/ml Ob, read-out: Colistin MIC, Colistin + 20 ug/ml Ob) | MIC (S. Typhimurium PY01; in the presence of 10 ug/ml Ob, read-out: Colistin MIC, Colistin + 10 ug/ml Ob)
2 µg/mL: MIC ([2]; P. aeruginosa PA01, colistin-susceptible, colistin alone, read-out: Colistin MIC, Colistin) | MIC ([2]; P. aeruginosa PAER 2011-3010, colistin-susceptible, colistin alone, read-out: Colistin MIC, Colistin) | MIC ([2]; P. aeruginosa PAER 2011-3252, colistin-susceptible, colistin alone, read-out: Colistin MIC, Colistin) | MIC ([2]; P. aeruginosa PAER 2012-1527, colistin-susceptible, colistin alone, read-out: Colistin MIC, Colistin) | MIC ([2]; P. aeruginosa PAER 2012-1527, colistin-susceptible, in the presence of 10 ug/ml Ob, read-out: Colistin MIC, Colistin + 10 ug/ml Ob) | MIC ([2]; P. aeruginosa PAERC 10.296, colistin-susceptible, colistin alone, read-out: Colistin MIC, Colistin) | MIC ([2]; P. aeruginosa PAERC 11.2309, colistin-susceptible, colistin alone, read-out: Colistin MIC, Colistin) | MIC ([2]; P. aeruginosa PAERC 11.2309, colistin-susceptible, in the presence of 20 ug/ml Ob, read-out: Colistin MIC, Colistin + 20 ug/ml Ob) | MIC ([2]; P. aeruginosa PAERC 11.236, colistin-susceptible, colistin alone, read-out: Colistin MIC, Colistin) | MIC ([2]; P. aeruginosa PAERC 11.603, colistin-susceptible, colistin alone, read-out: Colistin MIC, Colistin) | MIC ([2]; P. aeruginosa PAERC 12.1478, colistin-susceptible, colistin alone, read-out: Colistin MIC, Colistin) | MIC (S. Typhimurium PY01; colistin alone, read-out: Colistin MIC, Colistin) | MIC ([5]; E. coli 12.12.0487, colistin-resistant, in the presence of 10 ug/ml Ob, read-out: Colistin MIC, Colistin + 10 ug/ml Ob)
4 µg/mL: Colistin MIC, Colistin ([1]; A. baumannii ABJZ-46, colistin-resistant, colistin alone) | Colistin MIC, Colistin ([1]; A. baumannii ABJZ-50, colistin-resistant, colistin alone) | Colistin MIC, Colistin ([1]; A. baumannii ABJZ-72, colistin-resistant, colistin alone) | MIC ([1]; A. baumannii ABJZ-45, colistin-resistant, colistin alone, read-out: Colistin MIC, Colistin) | MIC ([1]; A. baumannii ATCC17978, colistin-resistant, colistin alone, read-out: Colistin MIC, Colistin) | MIC ([5]; E. coli 5, colistin-resistant, in the presence of 10 ug/ml Ob, read-out: Colistin MIC, Colistin + 10 ug/ml Ob)
0.25 µg/mL: MIC ([1]; read-out: Colistin MIC, Colistin + 10 ug/ml Ob, A. baumannii ABJZ-50, colistin-resistant, in the presence of 10 ug/ml Ob) | MIC ([2]; P. aeruginosa PA01, colistin-susceptible, in the presence of 20 ug/ml Ob, read-out: Colistin MIC, Colistin + 20 ug/ml Ob) | MIC ([2]; P. aeruginosa PAER 2011-3010, colistin-susceptible, in the presence of 20 ug/ml Ob, read-out: Colistin MIC, Colistin + 20 ug/ml Ob) | MIC ([2]; P. aeruginosa PAER 2011-3252, colistin-susceptible, in the presence of 20 ug/ml Ob, read-out: Colistin MIC, Colistin + 20 ug/ml Ob) | MIC ([2]; P. aeruginosa PAERC 11.603, colistin-susceptible, in the presence of 20 ug/ml Ob, read-out: Colistin MIC, Colistin + 20 ug/ml Ob)
increase the MIC: effect of supplemented Ca2+ and Mg2+ on MIC (E. coli J53)
0.5 µg/mL: MIC ([1]; read-out: Colistin MIC, Colistin + 10 ug/ml Ob, A. baumannii ABJZ-46, colistin-resistant, in the presence of 10 ug/ml Ob) | MIC ([2]; P. aeruginosa PA01, colistin-susceptible, in the presence of 10 ug/ml Ob, read-out: Colistin MIC, Colistin + 10 ug/ml Ob) | MIC ([2]; P. aeruginosa PAER 2011-3252, colistin-susceptible, in the presence of 10 ug/ml Ob, read-out: Colistin MIC, Colistin + 10 ug/ml Ob) | MIC ([2]; P. aeruginosa PAER 2012-1527, colistin-susceptible, in the presence of 20 ug/ml Ob, read-out: Colistin MIC, Colistin + 20 ug/ml Ob) | MIC ([2]; P. aeruginosa PAERC 11.2309, colistin-susceptible, in the presence of 10 ug/ml Ob, read-out: Colistin MIC, Colistin + 10 ug/ml Ob) | MIC ([2]; P. aeruginosa PAERC 11.236, colistin-susceptible, in the presence of 10 ug/ml Ob, read-out: Colistin MIC, Colistin + 10 ug/ml Ob) | MIC ([2]; P. aeruginosa PAERC 11.236, colistin-susceptible, in the presence of 20 ug/ml Ob, read-out: Colistin MIC, Colistin + 20 ug/ml Ob) | MIC ([2]; P. aeruginosa PAERC 11.603, colistin-susceptible, in the presence of 10 ug/ml Ob, read-out: Colistin MIC, Colistin + 10 ug/ml Ob) | MIC ([2]; P. aeruginosa PAERC 12.1478, colistin-susceptible, in the presence of 10 ug/ml Ob, read-out: Colistin MIC, Colistin + 10 ug/ml Ob) | MIC ([5]; E. coli 12.12.0487, colistin-resistant, in the presence of 20 ug/ml Ob, read-out: Colistin MIC, Colistin + 20 ug/ml Ob)
